{
  "source": "patent US20150105252A1",
  "about": "“SUBSTITUTED PYRAZOLES AS HERBICIDES” (E I DU PONT DE NEMOURS AND COMPANY, priority 2013, published 2015)",
  "key": {"galium": {"test_system": "galium", "experiment": "Test C postemergence", "assay_type": "in vivo, Galium aparine", "in_short": "(§1)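 Herbicidal effect is expressed as percent visual control (0–100) judged against untreated plants 13 to 15 days after treatment in the greenhouse. Preemergence pots contained seeds in a soil–sand blend; postemergence plants, 2–18 cm tall, grew in peat-based planting medium.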"}, "morningglory": {"test_system": "morningglory", "experiment": "Test C postemergence", "assay_type": "in vivo, Ipomoea coccinea", "in_short": "as §1"}, "lambsquarters [1]": {"test_system": "lambsquarters", "experiment": "Test C postemergence", "assay_type": "in vivo, Chenopodium album", "in_short": "as §1"}, "blackgrass": {"test_system": "blackgrass", "experiment": "Test C postemergence", "assay_type": "in vivo, Alopecurus myosuroides", "in_short": "as §1"}, "pigweed": {"test_system": "pigweed", "experiment": "Test C postemergence", "assay_type": "in vivo, Amaranthus retroflexus", "in_short": "as §1"}, "velvetleaf": {"test_system": "velvetleaf", "experiment": "Test C postemergence", "assay_type": "in vivo, Abutilon theophrasti", "in_short": "as §1"}, "chickweed": {"test_system": "chickweed", "experiment": "Test C postemergence", "assay_type": "in vivo, Stellaria media", "in_short": "as §1"}, "barnyardgrass": {"test_system": "barnyardgrass", "experiment": "Test C postemergence", "assay_type": "in vivo, Echinochloa crus-galli", "in_short": "as §1"}, "waterhemp": {"test_system": "waterhemp", "experiment": "Test C postemergence", "assay_type": "in vivo, Amaranthus rudis", "in_short": "as §1"}, "lambsquarters [2]": {"test_system": "lambsquarters", "experiment": "Test C preemergence", "assay_type": "in vivo, Chenopodium album", "in_short": "as §1"}, "crabgrass, large": {"test_system": "crabgrass, large", "experiment": "Test C postemergence", "assay_type": "in vivo, Digitaria sanguinalis", "in_short": "as §1"}, "oat, wild": {"test_system": "oat, wild", "experiment": "Test C postemergence", "assay_type": "in vivo, Avena fatua", "in_short": "as §1"}, "kochia": {"test_system": "kochia", "experiment": "Test C postemergence", "assay_type": "in vivo, Kochia scoparia", "in_short": "as §1"}, "wheat": {"test_system": "wheat", "experiment": "Test C postemergence", "assay_type": "in vivo, Triticum aestivum", "in_short": "as §1"}, "[3]": {"settings": "Postemergence, 31 g ai/ha, visually evaluated after 13 to 15 days"}, "[4]": {"settings": "postemergence, 62 g ai/ha, scale 0 to 100"}, "[5]": {"settings": "postemergence, 125 g ai/ha, scale 0 to 100, 0 no effect, 100 complete control"}},
  "data": [
    {"smiles": "CCc1cc(C(=O)NOC(C)C)nn1Cc1ccnc(C(F)(F)F)c1", "note": "[Compound 101]", "values": [
      {"measurement": "Plant response rating (scale of 0 to 100), Galium", "setting": "galium; Postemergence, 16 g ai/ha", "value": 20},
      {"measurement": "Plant response rating (scale of 0 to 100 where 0 is no effect and 100 is complete control), Galium", "setting": "galium; [3]", "value": 35},
      {"measurement": "Galium plant response rating", "setting": "galium; [4]", "value": 50},
      {"measurement": "Plant response rating, Galium", "setting": "galium; [5]", "value": 55},
      {"measurement": "Plant response rating (scale of 0 to 100), Morningglory", "setting": "morningglory; Postemergence, 16 g ai/ha", "value": 60},
      {"measurement": "Plant response rating (scale of 0 to 100 where 0 is no effect and 100 is complete control), Morningglory", "setting": "morningglory; [3]", "value": 60},
      {"measurement": "Morningglory plant response rating", "setting": "morningglory; [4]", "value": 65},
      {"measurement": "Plant response rating, Morningglory", "setting": "morningglory; [5]", "value": 95},
      {"measurement": "Plant response rating (scale of 0 to 100), Lambsquarters", "setting": "lambsquarters [1]; Postemergence, 16 g ai/ha", "value": 50},
      {"measurement": "Plant response rating (scale of 0 to 100 where 0 is no effect and 100 is complete control), Lambsquarters", "setting": "lambsquarters [1]; [3]", "value": 50},
      {"measurement": "Lambsquarters plant response rating", "setting": "lambsquarters [1]; [4]", "value": 65},
      {"measurement": "Plant response rating, Lambsquarters", "setting": "lambsquarters [1]; [5]", "value": 75},
      {"measurement": "Plant response rating (scale of 0 to 100), Blackgrass", "setting": "blackgrass; Postemergence, 16 g ai/ha", "value": 5},
      {"measurement": "Plant response rating (scale of 0 to 100 where 0 is no effect and 100 is complete control), Blackgrass", "setting": "blackgrass; [3]", "value": 5},
      {"measurement": "Blackgrass plant response rating", "setting": "blackgrass; [4]", "value": 5},
      {"measurement": "Plant response rating, Blackgrass", "setting": "blackgrass; [5]", "value": 15},
      {"measurement": "Plant response rating (scale of 0 to 100), Pigweed", "setting": "pigweed; Postemergence, 16 g ai/ha", "value": 20},
      {"measurement": "Plant response rating (scale of 0 to 100 where 0 is no effect and 100 is complete control), Pigweed", "setting": "pigweed; [3]", "value": 35},
      {"measurement": "Pigweed plant response rating", "setting": "pigweed; [4]", "value": 45},
      {"measurement": "Plant response rating, Pigweed", "setting": "pigweed; [5]", "value": 75},
      {"measurement": "Plant response rating (scale of 0 to 100), Velvetleaf", "setting": "velvetleaf; Postemergence, 16 g ai/ha", "value": 10},
      {"measurement": "Plant response rating (scale of 0 to 100 where 0 is no effect and 100 is complete control), Velvetleaf", "setting": "velvetleaf; [3]", "value": 15},
      {"measurement": "Velvetleaf plant response rating", "setting": "velvetleaf; [4]", "value": 25},
      {"measurement": "Plant response rating, Velvetleaf", "setting": "velvetleaf; [5]", "value": 30},
      {"measurement": "Plant response rating (scale of 0 to 100), Chickweed", "setting": "chickweed; Postemergence, 16 g ai/ha", "value": 45},
      {"measurement": "Plant response rating (scale of 0 to 100 where 0 is no effect and 100 is complete control), Chickweed", "setting": "chickweed; [3]", "value": 50},
      {"measurement": "Chickweed plant response rating", "setting": "chickweed; [4]", "value": 50},
      {"measurement": "Plant response rating, Chickweed", "setting": "chickweed; [5]", "value": 50},
      {"measurement": "Plant response rating (scale of 0 to 100), Barnyardgrass", "setting": "barnyardgrass; Postemergence, 16 g ai/ha", "value": 5},
      {"measurement": "Plant response rating (scale of 0 to 100 where 0 is no effect and 100 is complete control), Barnyardgrass", "setting": "barnyardgrass; [3]", "value": 5},
      {"measurement": "Barnyardgrass plant response rating", "setting": "barnyardgrass; [4]", "value": 5},
      {"measurement": "Plant response rating, Barnyardgrass", "setting": "barnyardgrass; [5]", "value": 5},
      {"measurement": "Plant response rating (scale of 0 to 100), Waterhemp", "setting": "waterhemp; Postemergence, 16 g ai/ha", "value": 10},
      {"measurement": "Plant response rating (scale of 0 to 100 where 0 is no effect and 100 is complete control), Waterhemp", "setting": "waterhemp; [3]", "value": 30},
      {"measurement": "Waterhemp plant response rating", "setting": "waterhemp; [4]", "value": 35},
      {"measurement": "Plant response rating, Waterhemp", "setting": "waterhemp; [5]", "value": 75},
      {"measurement": "Plant response rating, Lambsquarters", "setting": "lambsquarters [2]; Preemergence, 16 g ai/ha, scale 0 to 100", "value": 85},
      {"measurement": "Lambsquarters plant response rating", "setting": "lambsquarters [2]; preemergence, 31 g ai/ha, visual rating, scale 0 to 100 (0 no effect, 100 complete control), 13 to 15 days", "value": 85},
      {"measurement": "Plant response rating, Lambsquarters", "setting": "lambsquarters [2]; preemergence, 62 g ai/ha, 13 to 15 days, scale 0 to 100, 0 = no effect, 100 = complete control", "value": 85},
      {"measurement": "Lambsquarters plant response rating", "setting": "lambsquarters [2]; preemergence, 125 g ai/ha, scale 0 to 100, 0 is no effect, 100 is complete control", "value": 95},
      {"measurement": "Plant response rating (scale of 0 to 100), Crabgrass, Large", "setting": "crabgrass, large; Postemergence, 16 g ai/ha", "value": 5},
      {"measurement": "Plant response rating (scale of 0 to 100 where 0 is no effect and 100 is complete control), Crabgrass, Large", "setting": "crabgrass, large; [3]", "value": 5},
      {"measurement": "Crabgrass, Large plant response rating", "setting": "crabgrass, large; [4]", "value": 15},
      {"measurement": "Plant response rating, Crabgrass, Large", "setting": "crabgrass, large; [5]", "value": 20},
      {"measurement": "Plant response rating (scale of 0 to 100), Oat, Wild", "setting": "oat, wild; Postemergence, 16 g ai/ha", "value": 0},
      {"measurement": "Plant response rating (scale of 0 to 100 where 0 is no effect and 100 is complete control), Oat, Wild", "setting": "oat, wild; [3]", "value": 0},
      {"measurement": "Oat, Wild plant response rating", "setting": "oat, wild; [4]", "value": 5},
      {"measurement": "Plant response rating, Oat, Wild", "setting": "oat, wild; [5]", "value": 10},
      {"measurement": "Plant response rating (scale of 0 to 100), Kochia", "setting": "kochia; Postemergence, 16 g ai/ha", "value": 40},
      {"measurement": "Plant response rating (scale of 0 to 100 where 0 is no effect and 100 is complete control), Kochia", "setting": "kochia; [3]", "value": 60},
      {"measurement": "Kochia plant response rating", "setting": "kochia; [4]", "value": 65},
      {"measurement": "Plant response rating, Kochia", "setting": "kochia; [5]", "value": 65},
      {"measurement": "Plant response rating (scale of 0 to 100), Wheat", "setting": "wheat; Postemergence, 16 g ai/ha", "value": 0},
      {"measurement": "Plant response rating (scale of 0 to 100 where 0 is no effect and 100 is complete control), Wheat", "setting": "wheat; [3]", "value": 0},
      {"measurement": "Wheat plant response rating", "setting": "wheat; [4]", "value": 5},
      {"measurement": "Plant response rating, Wheat", "setting": "wheat; [5]", "value": 5}
    ]}
  ]
}
